From patent publication US10660836B2, “Hydroxy functionalized solvent based skin benefit composition” (Conopco, Inc., priority 2015, dated 2020)

Assay: Transparency (no crystallization or gelation) of 12-hydroxystearic acid compositions after manufacturing, visual inspection
Format: physicochemical
Set-up: key: C: a substantially transparent or transparent composition for at least three (3) months after manufacturing; X: an opaque (non-transparent, non-translucent) composition inconsistent with the claimed compositions of this invention and where benefit agent crystallization or composition gelation is almost immediately observed
Conditions: SBA = 12-hydroxystearic acid
Text: Cosmetic composition is meant to mean a leave-on or wash-off composition, preferably leave-on, for topical application to mammals, especially humans. Such a composition can include tonics, lotions, personal washes, serums, spot correctors, compositions for facial masks or wipes, make-up removers, patches, scrubs or the like. Substantially transparent as used herein, means allowing light to pass but diffusing the light so that items on the opposite side of light entry are not clearly visible. Substantially transparent is synonymous with translucent. Transparent, as used herein, means capable of transmitting light where objects opposite the point of entry of light are seen clearly upon a visable inspection (i.e., 2.5 cm of sample placed 5 cm over an object and viewed from 25 cm away from viewer's eyes). Flowable, as used herein, means having a viscosity from 0 to 8,000 cps, and preferably, from 10 to 4,000 cps, and most preferably, from 500 to 2,000 cps, including all ranges subsumed therein (viscosity measured on a Brookfield Viscometer, 24° C., 20 RPM, Spindle RV2). Free of crystallization and gelation as used herein means remaining at least substantially transparent (preferably transparent) at ambient temperature for at least three (3) months. Use of substantially transparent, transparent and translucent herein is based on the mixture of hydroxy functionalized solvent (with or without miscible co-solvent) and 12-hydroxystearic acid. It is not to say the mixture cannot, for example, comprise an optional opacifier. Hydroxy group density (“HD”) means the molecular weight of total solvent hydroxy group/the molecular weight of the solvent where solvent hydroxy group can include the hydroxy group on a carboxylic acid group. Methanol, for example, has an HD of 0.53, 17 g/mol/32 g/mol. Regarding optional additives, they may be used according to their solubility where those that are not water soluble may be selected for use in the composition substantially free of water as described herein and those which are water soluble may be used in the aforementioned optional but separate and distinct phase. Miscible/Soluble, as used herein, means ability to mix/dissolve homogeneously at 70 to 85° C. and remain homogeneously dissolved or mixed upon cooling. Comprising, as used herein, is meant to include consisting essentially of and consisting of. For the avoidance of doubt, therefore, the composition of this invention may consist essentially of or consist of 12-hydroxystearic acid and hydroxy functionalized solvent. Anhydrous as used herein means a composition substantially free of water whereby the composition is less than 2% by weight water, and preferably, less than 1% by weight water based on total weight of the composition comprising 12-hydroxystearic acid and hydroxy functionalized solvent. Anhydrous also includes free of water (i.e., no water) within the composition comprising 12-hydroxystearic and hydroxy fuctionalized solvent. Double phase product includes a two (2) portion product that may be separately packaged or preferably a biphasic product (i.e., distinct immiscible portions). Skin benefit agent means an agent in addition to hydroxyl functionalized solvent and 12-hydroxystearic acid that provides benefit to skin. The skin benefit agent used in the anhydrous composition of the invention that comprises 12-hydroxystearic acid is preferably soluble or miscible in the same. To the extent optional water miscible/soluble actives or ingredients are used, they will preferably be provided, as later described, in a double phase product with the anhydrous composition of this invention, the double phase product having a distinct phase often being a water phase (including emulsions, solutions and dispersions), water containing concentrate or water soluble solid, particulate or powder. Water phase, as used herein, includes a composition having 2% or more water, and preferably, from 10% to 98% by weight water based on total weight of the water phase. […]

Compound | Transparency of composition (1% SBA/99% Solvent) | Transparency of composition (3% SBA/97% Solvent) | Transparency of composition (5% SBA/95% Solvent) | Transparency of composition (10% SBA/90% Solvent) | Transparency of composition (15% SBA/85% Solvent) | Transparency of composition (20% SBA/80% Solvent) | Transparency of composition (25% SBA/75% Solvent)
CCOCCOCCO [2-(2-Ethoxyethoxy)ethanol] | C (a substantially transparent or transparent composition for at least three (3) months after manufacturing) | C (a substantially transparent or transparent composition for at least three (3) months after manufacturing) | C (a substantially transparent or transparent composition for at least three (3) months after manufacturing) | X | X | X | X
OCc1ccccc1 [Benzyl Alcohol] | C (a substantially transparent or transparent composition for at least three (3) months after manufacturing) | C (a substantially transparent or transparent composition for at least three (3) months after manufacturing) | C (a substantially transparent or transparent composition for at least three (3) months after manufacturing) | X | X | X | X
OCCCCO [Butylene Glycol] | C (a substantially transparent or transparent composition for at least three (3) months after manufacturing) | X | X | X | X | X | X
CCO [Ethanol] | C (a substantially transparent or transparent composition for at least three (3) months after manufacturing) | C (a substantially transparent or transparent composition for at least three (3) months after manufacturing) | C (a substantially transparent or transparent composition for at least three (3) months after manufacturing) | C (a substantially transparent or transparent composition for at least three (3) months after manufacturing) | C (a substantially transparent or transparent composition for at least three (3) months after manufacturing) | X | X
CC(C)CCCCCCCCCCCCCCC(=O)O [Isostearic Acid] | C (a substantially transparent or transparent composition for at least three (3) months after manufacturing) | C (a substantially transparent or transparent composition for at least three (3) months after manufacturing) | X | X | X | X | X
CC(C)CCCCCCCCCCCCCCCO [Isostearyl Alcohol] | C (a substantially transparent or transparent composition for at least three (3) months after manufacturing) | C (a substantially transparent or transparent composition for at least three (3) months after manufacturing) | X | X | X | X | X
CO [Methanol] | C (a substantially transparent or transparent composition for at least three (3) months after manufacturing) | C (a substantially transparent or transparent composition for at least three (3) months after manufacturing) | C (a substantially transparent or transparent composition for at least three (3) months after manufacturing) | C (a substantially transparent or transparent composition for at least three (3) months after manufacturing) | C (a substantially transparent or transparent composition for at least three (3) months after manufacturing) | C (a substantially transparent or transparent composition for at least three (3) months after manufacturing) | X
CCCCCCCCCCC(CO)CCCCCCCC (stereo not drawn) [Octyldodecanol] | C (a substantially transparent or transparent composition for at least three (3) months after manufacturing) | C (a substantially transparent or transparent composition for at least three (3) months after manufacturing) | X | X | X | X | X
OCCOc1ccccc1 [Pehnoxyethanol] | C (a substantially transparent or transparent composition for at least three (3) months after manufacturing) | C (a substantially transparent or transparent composition for at least three (3) months after manufacturing) | C (a substantially transparent or transparent composition for at least three (3) months after manufacturing) | X | X | X | X
CC(O)CO (stereo not drawn) [Propylene Glycol] | C (a substantially transparent or transparent composition for at least three (3) months after manufacturing) | X | X | X | X | X | X
Conjugated Linoleic Acid | C (a substantially transparent or transparent composition for at least three (3) months after manufacturing) | C (a substantially transparent or transparent composition for at least three (3) months after manufacturing) | X | X | X | X | X
Ethylhexyl Hydroxystearate | C (a substantially transparent or transparent composition for at least three (3) months after manufacturing) | X | X | X | X | X | X
